Results from patent US20220380443A1, “TARGETING NAPA-LINKED PEP[…] TREATING LYME DISEASE” (priority 2021, published 2022).

How the values were obtained:
dHL-60 cells = assay: dHL-60 cell (neutrophil) migration in microfluidic competitive chemotaxis-chip (μC3); format: cell-based, Human; conditions: 125 μg/mL PG sample, 10 nM fMLP, 100 nM LTB4, 5 hours; for Percentage of Cells Migrated toward stimulus: mean±SD of three biological replicates
Description: Fresh, mixed donor human peripheral blood mononuclear cells (PBMCs) (Zen-Bio) were re-suspended in PBMC media (Zen-Bio) overnight prior to stimulations. Human NOD2 reporter cells, which were used to detect PG in OMVs (see below), were purchased from Invi-vogen and cultured as recommended by the manufacturer. Human promyelocytic leukemia cells (HL-60 CCL-240, American Type Culture Collection ATCC, Manassas, Va.) were cul-tured in complete media comprising of Iscove's Modified Dulbecco's Medium (IMDM, ATCC, Manassas, Va.) supplemented with 10% fetal bovine serum (FBS, ATCC, Manassas, Va.) at 37° C. in 5% CO2, according to ATCC instructions. HL-60 cells were differentiated into a neutrophil-like state with 1.5% dimethyl sulfoxide (DMSO, Sigma-Aldrich, St. Louis, Mo.) to 1.5×10^5 cells/mL for five days. Differentiated HL-60 cells (dHL-60 cells) were stained with Hoechst solution [20 mM] for 10 minutes (Thermo Fisher Scientific, Waltham, Mass.) at 37° C. and 5% CO2 and spun down and re-suspended into a concentration of 5.0×10^7 cells/mL immediately before use in the migration assay.
The microfluidic competitive chemotaxis-chip (μC3) was used to perform each migration assay. This device allowed for the creation of a dual gradient through two opposing chemoattractant reservoirs. The central cell-loading chamber is connected to the two reservoirs by perpendicular cell migration ladders (measured 10 μm wide×10 μm tall). Device fabrication was as previously. Briefly, two layers of photoresist (SUB, MicroChem), the first one 10 μm thin (corresponding to the migration channels) and the second one 70 μm thick (corresponding to the neutrophil loading chamber) were patterned on one silicon wafer sequentially using two photolithographic masks and processing cycles according to the instructions from the manufacturer. The wafer with patterned photoresist was used as a mold to produce polydimethylsiloxane (PDMS) (Sylgard 184, Elsworth Adhesives, Wilmington, Mass.) devices, which were then bonded to the base of glass-bottom 6-well plates (MatTek Corp., Ashland, Mass.), using an oxygen plasma machine (Nordson March, Concord, Calif.). Prior to each migration assay, the device was primed with fibronectin (Sigma-Aldrich, St. Louis, Mo.) (11 μg/mL). After priming with fibronectin, each device was covered in 4 mL complete media. […]
Each assay was visualized on a fully automated Nikon TiE microscope using a Plan Fluor 10×Ph1 DLL (NA=0.3) lens with a biochamber heated to 37° C. with 5% CO2. […] Image analysis of cell migration counts was analyzed automatically using ImageJ Cell tracking was conducted using an automated tracker, TrackMate (custom tracking and analysis codes are available for download at https://github.com/boribong/Single-Cell-Migration-Tracking) and ImageJ software (NIH). […]

[1] = test system: B. burgdorferi 5A11 and 5A11/napA; assay: Lysozyme and NaCl stress tests (microtiter growth, colony forming units); format: cell-based, Borrelia burgdorferi; conditions: microtiter plate, end-point after 6 days, FIG. 7A
Description: Initial studies geared towards understanding both permissive and restrictive growth conditions upon stress were performed in microplates with serial dilutions. Each strain was cultured to ˜1×10^6 cells/mL and subsequently back diluted to a final concentration of 1×10^4 cells/mL in fresh B SKIT containing cell-wall stress. Lysozyme and NaCl were serially diluted 1:1. The final concentration of Lysozyme ranged from 2 mg/mL to 0 mg/mL, while NaCl varied from 500 nM to 7.8 mM. […] Both microtiter plates contained 4 wells of uninoculated media, which served as a negative control. These 96 well plates were allowed to incubate at 37° C. under 5% CO2 for 6 days. Afterwards, they were placed at ambient conditions for 2 hours before being imaged.
Parental and NapA mutant bacteria were cultured to ˜6.5×10^6 cells/mL and back diluted to a final starting concentration of 10^6 cells/mL. Each culture was stressed with Lysozyme (0.37 mg/mL) or NaCl (0.111 M) for 24 hours without additional antibiotic selection. Afterwards, each culture was plated using standard methods [92] and cultured at 37° C. under 5% CO2.

Compound	dHL-60 Cell Velocity, cells migrating toward stimulus (dHL-60 cells) [μm/min]	Percentage of Cells Migrated toward stimulus (dHL-60 cells) [%]	resistance of wild-type cells to NaCl-induced stress versus 5A11/napA ([1]; NaCl 7.8 to 500 mM)	less enzyme needed to ablate 5A11/napA growth than wild-type bacteria ([1]; Lysozyme 0 to 2 mg/mL)
CCCCC/C=C\C[C@@H](O)/C=C/C=C/C=C\[C@@H](O)CCCC(=O)O [LTB4, Leukotriene B4]	7.04±4.90	25.89±3.52	–	–
[Cl-].[Na+] [NaCl]	–	–	more than 8 times	–
Formylmethionine-leucyl-phenylalanine [fMLP]	6.93±4.40	35.94±5.42	–	–
Lysozyme	–	–	–	5-6 times
